1 compound from BindingDB's records for doi:10.1021/jm201449n (Cephalon, 2012) can be followed below.

In general, IC50 refers to the concentration at which inhibition is half-maximal. A lower IC50 goes with greater potency.

The assay addresses Mitogen-activated protein kinase kinase kinase 7 (TAK1/MAP3K7) (Homo sapiens) (UniProt O43318). In words: Inhibition of human TAK1 using ATP as substrate.

Chain of Mitogen-activated protein kinase kinase kinase 7 (TAK1/MAP3K7) (Homo sapiens) (O43318 whole entry, looked up): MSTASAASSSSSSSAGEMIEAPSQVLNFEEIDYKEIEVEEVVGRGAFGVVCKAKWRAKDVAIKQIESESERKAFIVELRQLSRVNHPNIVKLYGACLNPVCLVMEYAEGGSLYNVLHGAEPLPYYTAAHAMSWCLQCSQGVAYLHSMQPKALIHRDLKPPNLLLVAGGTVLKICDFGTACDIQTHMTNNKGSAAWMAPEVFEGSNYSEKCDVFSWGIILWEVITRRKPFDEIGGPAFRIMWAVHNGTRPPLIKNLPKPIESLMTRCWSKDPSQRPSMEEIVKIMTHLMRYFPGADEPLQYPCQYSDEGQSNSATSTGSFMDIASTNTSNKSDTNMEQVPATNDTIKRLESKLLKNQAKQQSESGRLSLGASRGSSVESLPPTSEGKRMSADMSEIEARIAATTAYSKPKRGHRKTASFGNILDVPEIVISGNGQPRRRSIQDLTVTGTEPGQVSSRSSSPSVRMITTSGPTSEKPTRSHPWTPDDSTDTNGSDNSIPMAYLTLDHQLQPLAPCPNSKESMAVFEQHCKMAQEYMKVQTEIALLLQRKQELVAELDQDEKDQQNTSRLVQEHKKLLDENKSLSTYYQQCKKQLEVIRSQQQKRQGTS

`CC(C)Cn1c2ccc(Nc3ncccn3)cc2c2c3c(c4c(c21)CCc1nn(C)cc1-4)C(=O)NC3` [CEP-11981] yielded an IC50 of 14 nM.
